In patent US20150307520A1, “NOVEL HETEROARYL AND HETEROCYCLE COMPOUNDS, COMPOSITIONS AND METHODS THEREOF” (HUTCHISON MEDIPHARMA LIMITED, priority 2012, published 2015):

Legend:
Assay type in all cases: biochemical
[1] = biological target: p110δ/p85α (Homo sapiens, UniProt O00329); assay: Transcreener KINASE Assay, kinase inhibition of p110δ/p85α; conditions: for PI3Kδ IH % @ 1 uM: 1 uM test compound; for IC50: read-out: PI3Kδ IC50
How it was run: (§1)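 Steps: compound (2% DMSO final) plus enzyme in HEPES/NaCl/EGTA/CHAPS/3 mM MgCl2/1 mM DTT buffer; start with PIP2/ATP addition (30 uM/10 uM solution); 80 min RT; add ADP detection mix, 60 min RT; read fluorescence polarization.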

[2] = biological target: p110α/p85α (Homo sapiens, UniProt P42336); assay: Transcreener KINASE Assay, kinase inhibition of p110α/p85α; conditions: for PI3Kα IH % @ 1 uM: 1 uM test compound
Protocol: PI3K kinases including p110α/p85α, p110δ/p85α and p110γ are purchased from Invitrogen, and p110β/p85α is from Millipore.
Primary screening data and IC50 values are measured using Transcreener™ KINASE Assay (Bellbrook, Catalog #3003-10K). […] It is a universal, homogenous, high throughput screening (HTS) technology using a far-red, competitive fluorescence polarization immunoassay based on the detection of ADP to monitor the activity of enzymes that catalyze group transfer reactions. Briefly, the Transcreener KINASE Assay is designed as a simple two-part, endpoint assay.
In the first step, the 25 ul kinase reaction is performed by preparing a reaction mixture containing 5 ul test compound (2% DMSO final concentration), 10 ul kinase, buffer (50 mM HEPES, 100 mM NaCl, 1 mM EGTA, 0.03% CHAPS, 3 mM MgCl2, and freshly supplemented 1 mM DTT), and 10 ul 30 uM PIP2/10 uM ATP. The plate is sealed and incubated for 80 min at room temperature. Next, 25 ul ADP detection mix is added per well. The plate is sealed again and incubated for 60 min at room temperature, and then measure fluorescence polarization by Tecan Infinite F500 Reader.
Data is analyzed and IC50s are generated using the add-in software for Microsoft Excel, Xlfit™ (version 2.0). IH %=(ADP amount under 2% DMSO-ADP amount under test compound)/ADP amount under 2% DMSO.

[3] = biological target: p110β/p85α (Homo sapiens, UniProt P42338); assay: Transcreener KINASE Assay, kinase inhibition of p110β/p85α; conditions: for PI3Kβ IH % @ 1 uM: 1 uM test compound; for IC50: read-out: PI3Kβ IC50
How it was run: as §1

[4] = biological target: p110γ (Homo sapiens, UniProt P48736); assay: Transcreener KINASE Assay, kinase inhibition of p110γ; conditions: for PI3Kγ IH % @ 1 uM: 1 uM test compound; for IC50: read-out: PI3Kγ IC50
How it was run: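 Recombinant PI3K isoforms (p85α complexes or p110γ alone) reacted 80 min at room temperature, then ADP detection mix added for 60 min. ADP formation read by far-red competitive fluorescence polarization immunoassay; IC50 by curve fitting.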

Sequence of p110α/p85α (P42336 whole entry): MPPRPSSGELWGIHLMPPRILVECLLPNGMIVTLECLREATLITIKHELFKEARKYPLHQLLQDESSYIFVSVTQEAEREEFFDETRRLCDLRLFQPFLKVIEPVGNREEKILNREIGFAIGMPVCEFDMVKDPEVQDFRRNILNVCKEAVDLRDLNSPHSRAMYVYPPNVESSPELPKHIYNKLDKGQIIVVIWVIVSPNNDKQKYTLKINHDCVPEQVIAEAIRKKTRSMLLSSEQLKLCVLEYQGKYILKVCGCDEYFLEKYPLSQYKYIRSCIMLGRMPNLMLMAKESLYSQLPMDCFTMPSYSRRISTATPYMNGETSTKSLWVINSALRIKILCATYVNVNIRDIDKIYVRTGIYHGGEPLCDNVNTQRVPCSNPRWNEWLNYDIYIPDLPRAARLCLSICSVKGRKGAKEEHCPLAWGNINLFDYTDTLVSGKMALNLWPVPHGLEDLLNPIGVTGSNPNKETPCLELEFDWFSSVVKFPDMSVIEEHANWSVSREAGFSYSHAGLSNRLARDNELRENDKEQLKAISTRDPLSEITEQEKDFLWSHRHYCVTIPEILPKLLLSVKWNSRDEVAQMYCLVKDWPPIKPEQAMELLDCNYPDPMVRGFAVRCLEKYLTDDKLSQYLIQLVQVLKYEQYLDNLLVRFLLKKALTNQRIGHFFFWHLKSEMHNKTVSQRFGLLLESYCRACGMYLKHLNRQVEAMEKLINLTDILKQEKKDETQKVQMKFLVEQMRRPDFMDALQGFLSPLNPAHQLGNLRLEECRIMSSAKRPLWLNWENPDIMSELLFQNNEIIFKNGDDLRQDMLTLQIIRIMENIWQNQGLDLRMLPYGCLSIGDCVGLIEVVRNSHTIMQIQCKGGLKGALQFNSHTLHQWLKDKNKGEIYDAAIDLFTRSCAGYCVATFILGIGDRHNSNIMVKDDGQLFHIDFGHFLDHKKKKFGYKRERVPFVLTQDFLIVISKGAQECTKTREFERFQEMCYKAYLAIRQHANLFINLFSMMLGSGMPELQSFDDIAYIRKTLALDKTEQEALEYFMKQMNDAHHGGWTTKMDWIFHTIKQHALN
Sequence of p110α/p85α (P27986 whole entry partner): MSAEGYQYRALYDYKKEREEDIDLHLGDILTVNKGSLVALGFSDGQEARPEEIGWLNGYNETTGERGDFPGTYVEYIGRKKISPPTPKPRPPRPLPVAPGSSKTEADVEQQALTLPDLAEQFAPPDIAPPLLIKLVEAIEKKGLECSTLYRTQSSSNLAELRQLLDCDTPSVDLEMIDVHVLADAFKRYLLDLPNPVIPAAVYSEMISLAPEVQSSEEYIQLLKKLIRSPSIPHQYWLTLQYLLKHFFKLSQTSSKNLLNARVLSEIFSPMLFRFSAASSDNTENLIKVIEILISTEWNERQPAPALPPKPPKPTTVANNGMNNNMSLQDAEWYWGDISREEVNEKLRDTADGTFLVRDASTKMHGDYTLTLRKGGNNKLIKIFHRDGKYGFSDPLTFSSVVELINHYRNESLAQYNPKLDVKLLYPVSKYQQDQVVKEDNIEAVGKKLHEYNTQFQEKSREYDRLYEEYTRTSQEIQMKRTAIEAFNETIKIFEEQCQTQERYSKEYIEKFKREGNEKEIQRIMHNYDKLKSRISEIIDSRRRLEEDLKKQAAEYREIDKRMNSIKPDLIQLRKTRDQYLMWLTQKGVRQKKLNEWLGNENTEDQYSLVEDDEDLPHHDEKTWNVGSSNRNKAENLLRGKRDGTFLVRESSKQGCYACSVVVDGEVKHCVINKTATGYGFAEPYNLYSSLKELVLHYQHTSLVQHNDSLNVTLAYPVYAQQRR
Sequence of p110β/p85α (P42338 whole entry): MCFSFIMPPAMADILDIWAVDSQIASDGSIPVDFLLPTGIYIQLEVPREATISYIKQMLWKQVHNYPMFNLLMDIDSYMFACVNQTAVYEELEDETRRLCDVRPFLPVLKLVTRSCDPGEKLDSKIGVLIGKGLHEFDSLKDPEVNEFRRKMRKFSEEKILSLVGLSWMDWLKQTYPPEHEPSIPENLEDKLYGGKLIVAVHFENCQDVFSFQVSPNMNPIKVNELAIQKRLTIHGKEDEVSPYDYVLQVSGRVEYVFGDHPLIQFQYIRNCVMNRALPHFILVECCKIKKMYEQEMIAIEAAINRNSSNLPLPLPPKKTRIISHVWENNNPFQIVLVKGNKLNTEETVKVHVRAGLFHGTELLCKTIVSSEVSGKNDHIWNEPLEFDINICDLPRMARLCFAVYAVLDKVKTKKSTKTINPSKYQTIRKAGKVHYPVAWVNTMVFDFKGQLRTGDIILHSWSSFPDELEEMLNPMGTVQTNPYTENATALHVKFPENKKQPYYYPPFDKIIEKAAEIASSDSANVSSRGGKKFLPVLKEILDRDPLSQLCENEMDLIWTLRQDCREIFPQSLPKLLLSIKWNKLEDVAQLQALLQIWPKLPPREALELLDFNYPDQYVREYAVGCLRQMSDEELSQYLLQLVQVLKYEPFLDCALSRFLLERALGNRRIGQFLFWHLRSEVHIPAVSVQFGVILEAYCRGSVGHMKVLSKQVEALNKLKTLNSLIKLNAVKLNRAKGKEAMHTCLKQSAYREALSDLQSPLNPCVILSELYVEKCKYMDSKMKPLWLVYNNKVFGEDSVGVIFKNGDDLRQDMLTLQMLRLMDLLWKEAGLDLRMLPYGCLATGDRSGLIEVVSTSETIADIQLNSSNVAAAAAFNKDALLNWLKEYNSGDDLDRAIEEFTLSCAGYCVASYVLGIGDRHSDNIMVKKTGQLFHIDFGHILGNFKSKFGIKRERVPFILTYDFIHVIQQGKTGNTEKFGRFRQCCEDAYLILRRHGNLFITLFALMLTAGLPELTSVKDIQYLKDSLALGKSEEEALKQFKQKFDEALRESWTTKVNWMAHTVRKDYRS
Sequence of p110β/p85α (P27986 2-724 partner): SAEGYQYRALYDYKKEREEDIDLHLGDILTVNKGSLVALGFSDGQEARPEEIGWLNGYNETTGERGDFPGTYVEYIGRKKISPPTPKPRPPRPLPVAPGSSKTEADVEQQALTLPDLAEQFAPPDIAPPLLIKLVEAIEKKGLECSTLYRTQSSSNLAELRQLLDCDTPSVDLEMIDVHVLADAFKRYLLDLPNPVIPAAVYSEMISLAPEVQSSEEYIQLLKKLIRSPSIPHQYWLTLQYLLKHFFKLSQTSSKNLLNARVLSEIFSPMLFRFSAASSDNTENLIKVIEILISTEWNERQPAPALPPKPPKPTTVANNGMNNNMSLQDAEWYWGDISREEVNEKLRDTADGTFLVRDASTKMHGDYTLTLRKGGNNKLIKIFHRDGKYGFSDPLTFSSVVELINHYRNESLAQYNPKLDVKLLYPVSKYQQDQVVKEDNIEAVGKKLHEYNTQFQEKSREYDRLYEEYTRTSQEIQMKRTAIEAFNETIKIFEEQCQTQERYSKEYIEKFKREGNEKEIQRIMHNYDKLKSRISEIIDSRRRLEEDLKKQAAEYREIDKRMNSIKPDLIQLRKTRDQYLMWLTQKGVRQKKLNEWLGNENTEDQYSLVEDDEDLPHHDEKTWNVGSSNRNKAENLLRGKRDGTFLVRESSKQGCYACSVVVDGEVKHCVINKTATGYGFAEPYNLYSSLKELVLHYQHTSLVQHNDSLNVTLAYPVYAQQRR
Sequence of p110γ (P48736 whole entry, canonical isoform): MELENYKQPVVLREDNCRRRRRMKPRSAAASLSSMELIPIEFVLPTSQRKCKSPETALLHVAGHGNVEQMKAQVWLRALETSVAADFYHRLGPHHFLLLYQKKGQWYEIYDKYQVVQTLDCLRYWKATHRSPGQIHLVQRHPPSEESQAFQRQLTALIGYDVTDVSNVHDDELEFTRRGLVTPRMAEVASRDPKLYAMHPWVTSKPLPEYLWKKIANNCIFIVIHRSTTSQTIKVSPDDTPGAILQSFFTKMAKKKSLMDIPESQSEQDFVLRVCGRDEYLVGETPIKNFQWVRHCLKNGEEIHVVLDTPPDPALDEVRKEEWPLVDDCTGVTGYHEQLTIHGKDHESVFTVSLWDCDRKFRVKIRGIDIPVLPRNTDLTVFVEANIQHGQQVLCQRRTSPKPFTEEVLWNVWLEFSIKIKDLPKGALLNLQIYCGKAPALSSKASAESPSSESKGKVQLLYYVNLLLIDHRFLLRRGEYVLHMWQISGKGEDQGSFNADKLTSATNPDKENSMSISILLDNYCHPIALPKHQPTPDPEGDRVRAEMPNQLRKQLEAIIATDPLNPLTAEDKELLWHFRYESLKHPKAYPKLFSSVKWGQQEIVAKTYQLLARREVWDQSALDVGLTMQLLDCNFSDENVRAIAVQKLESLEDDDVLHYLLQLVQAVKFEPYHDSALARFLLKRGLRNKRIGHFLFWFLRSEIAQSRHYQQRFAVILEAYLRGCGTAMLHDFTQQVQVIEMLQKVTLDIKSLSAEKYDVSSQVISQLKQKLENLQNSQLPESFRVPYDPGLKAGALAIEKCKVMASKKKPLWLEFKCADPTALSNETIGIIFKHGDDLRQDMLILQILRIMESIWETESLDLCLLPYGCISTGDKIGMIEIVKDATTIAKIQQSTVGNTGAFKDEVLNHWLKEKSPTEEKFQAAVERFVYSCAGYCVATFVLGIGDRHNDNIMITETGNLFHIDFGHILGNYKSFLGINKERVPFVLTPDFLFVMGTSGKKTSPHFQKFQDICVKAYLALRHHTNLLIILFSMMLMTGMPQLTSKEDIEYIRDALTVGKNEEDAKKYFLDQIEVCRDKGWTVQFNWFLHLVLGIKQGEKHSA

Structure (SMILES): N#Cc1c[nH]c2ncnc(N3CC[C@H]3c3nn4cccc4c(=O)n3-c3ccccc3)c12 [Compound 6]
- PI3Kδ IH % @ 1 uM [1]: 91.5%
- PI3Kα IH % @ 1 uM [2]: −10.6%
- PI3Kβ IH % @ 1 uM [3]: 28.0%
- PI3Kγ IH % @ 1 uM [4]: 58.6%

Structure (SMILES): O=c1c2cccn2nc([C@@H]2CCN2c2ncnc3[nH]cnc23)n1-c1ccccc1 [Compound 7]
- PI3Kδ IH % @ 1 uM [1]: 50.4%
- PI3Kα IH % @ 1 uM [2]: −18.6%
- PI3Kβ IH % @ 1 uM [3]: 17.7%
- PI3Kγ IH % @ 1 uM [4]: 16.6%

Structure (SMILES): N#Cc1c[nH]c2ncnc(N3CCC[C@H]3c3nn4ccc(Cl)c4c(=O)n3-c3ccccc3)c12 [Compound 25]
- PI3Kδ IH % @ 1 uM [1]: >100%
- IC50 [1]: 0.001 µM
- PI3Kα IH % @ 1 uM [2]: 80.9%
- PI3Kβ IH % @ 1 uM [3]: 93.7%
- IC50 [3]: 0.034 µM
- PI3Kγ IH % @ 1 uM [4]: 98.6%

Structure (SMILES): O=c1c2c(Cl)ccn2nc([C@@H]2CCCN2c2ncnc3[nH]cnc23)n1-c1ccccc1 [Compound 26]
- PI3Kδ IH % @ 1 uM [1]: >100%
- IC50 [1]: 0.002 µM
- PI3Kα IH % @ 1 uM [2]: 20.3%
- PI3Kβ IH % @ 1 uM [3]: 88.7%
- IC50 [3]: 0.091 µM
- PI3Kγ IH % @ 1 uM [4]: 93.3%

Structure (SMILES): N#Cc1c[nH]c2ncnc(N3CC[C@H]3c3nn4ccc(Cl)c4c(=O)n3-c3ccccc3)c12 [Compound 28]
- PI3Kδ IH % @ 1 uM [1]: >100%
- IC50 [1]: 0.014 µM
- PI3Kα IH % @ 1 uM [2]: −0.3%
- PI3Kβ IH % @ 1 uM [3]: 49.9%
- PI3Kγ IH % @ 1 uM [4]: 92.2%
- IC50 [4]: 0.032 µM

Structure (SMILES): O=c1c2c(Cl)ccn2nc([C@@H]2CCN2c2ncnc3[nH]cnc23)n1-c1ccccc1 [Compound 29]
- PI3Kδ IH % @ 1 uM [1]: >100%
- IC50 [1]: 0.084 µM
- PI3Kα IH % @ 1 uM [2]: −1.5%
- PI3Kβ IH % @ 1 uM [3]: 18.5%
- PI3Kγ IH % @ 1 uM [4]: 72.5%

Structure (SMILES): Nc1ncnc(N2CC[C@H]2c2nn3ccc(Cl)c3c(=O)n2-c2ccccc2)c1Cl [Compound 30]
- PI3Kδ IH % @ 1 uM [1]: >100%
- IC50 [1]: 0.009 µM
- PI3Kα IH % @ 1 uM [2]: −20.5%
- PI3Kβ IH % @ 1 uM [3]: 51.3%
- PI3Kγ IH % @ 1 uM [4]: 74.1%
- IC50 [4]: 0.094 µM

Structure (SMILES): N#Cc1c(N)ncnc1N1CC[C@H]1c1nn2ccc(Cl)c2c(=O)n1-c1ccccc1 [Compound 31]
- PI3Kδ IH % @ 1 uM [1]: >100%
- IC50 [1]: 0.016 µM
- PI3Kα IH % @ 1 uM [2]: −17.7%
- PI3Kβ IH % @ 1 uM [3]: 35.3%
- PI3Kγ IH % @ 1 uM [4]: 81.5%
- IC50 [4]: 0.153 µM

Structure (SMILES): N#Cc1c(N)ncnc1N1CCC[C@H]1c1nn2ccc(Cl)c2c(=O)n1-c1ccccc1 [Compound 32]
- PI3Kδ IH % @ 1 uM [1]: >100%
- IC50 [1]: 0.001 µM
- PI3Kα IH % @ 1 uM [2]: 54.5%
- PI3Kβ IH % @ 1 uM [3]: 96.7%
- IC50 [3]: 0.013 µM
- PI3Kγ IH % @ 1 uM [4]: 94.8%
- IC50 [4]: 0.008 µM

Structure (SMILES): COc1cccc(-n2c([C@@H]3CCN3c3ncnc4[nH]cc(C#N)c34)nn3ccc(Cl)c3c2=O)c1 [Compound 34]
- PI3Kδ IH % @ 1 uM [1]: 96.8%
- IC50 [1]: 0.029 µM
- PI3Kα IH % @ 1 uM [2]: −2.5%
- PI3Kβ IH % @ 1 uM [3]: 12.4%
- PI3Kγ IH % @ 1 uM [4]: 84.6%
- IC50 [4]: 0.203 µM

Structure (SMILES): COc1cccc(-n2c([C@@H]3CCN3c3ncnc(N)c3C#N)nn3ccc(Cl)c3c2=O)c1 [Compound 35]
- PI3Kδ IH % @ 1 uM [1]: 94.1%
- IC50 [1]: 0.057 µM
- PI3Kα IH % @ 1 uM [2]: −6.6%
- PI3Kβ IH % @ 1 uM [3]: 24.7%
- PI3Kγ IH % @ 1 uM [4]: 61.2%

Structure (SMILES): COc1cccc(-n2c([C@@H]3CCCN3c3ncnc4[nH]cnc34)nn3ccc(Cl)c3c2=O)c1 [Compound 36]
- PI3Kδ IH % @ 1 uM [1]: 99.1%
- PI3Kα IH % @ 1 uM [2]: 6.4%
- PI3Kβ IH % @ 1 uM [3]: 60.9%
- PI3Kγ IH % @ 1 uM [4]: 90.8%
- IC50 [4]: 0.035 µM

Structure (SMILES): O=c1c2c(Cl)ccn2nc([C@@H]2CCCN2c2ncnc3[nH]cnc23)n1-c1cccc(F)c1 [Compound 38]
- IC50 [1]: 0.003 µM
- PI3Kα IH % @ 1 uM [2]: −3.3%
- PI3Kβ IH % @ 1 uM [3]: 54.8%
- PI3Kγ IH % @ 1 uM [4]: 93.5%

Structure (SMILES): Cc1ccn2nc([C@@H]3CCCN3c3ncnc4[nH]cc(C#N)c34)n(-c3ccccc3)c(=O)c12 [Compound 42]
- PI3Kδ IH % @ 1 uM [1]: >100%
- PI3Kα IH % @ 1 uM [2]: 71.8%
- PI3Kβ IH % @ 1 uM [3]: 79.8%
- IC50 [3]: 0.186 µM
- PI3Kγ IH % @ 1 uM [4]: 91.2%
- IC50 [4]: 0.005 µM

Structure (SMILES): Cc1ccn2nc([C@@H]3CCCN3c3ncnc4[nH]cnc34)n(-c3ccccc3)c(=O)c12 [Compound 43]
- PI3Kδ IH % @ 1 uM [1]: >100%
- IC50 [1]: 0.002 µM
- PI3Kα IH % @ 1 uM [2]: 35.1%
- PI3Kβ IH % @ 1 uM [3]: 66.0%
- PI3Kγ IH % @ 1 uM [4]: 96.6%
- IC50 [4]: 0.019 µM

Structure (SMILES): Cc1ccn2nc([C@@H]3CCCN3c3nc(N)nc4[nH]cnc34)n(-c3ccccc3)c(=O)c12 [Compound 44]
- PI3Kδ IH % @ 1 uM [1]: >100%
- IC50 [1]: 0.001 µM
- PI3Kα IH % @ 1 uM [2]: 46.7%
- PI3Kβ IH % @ 1 uM [3]: 74.3%
- IC50 [3]: 0.302 µM
- PI3Kγ IH % @ 1 uM [4]: 95.2%
- IC50 [4]: 0.005 µM

Structure (SMILES): N#Cc1c[nH]c2ncnc(N3CCC[C@H]3c3nn4ccc(Cl)c4c(=O)n3Cc3ccccc3)c12 [Compound 62]
- PI3Kδ IH % @ 1 uM [1]: 95.4%
- IC50 [1]: 0.039 µM
- PI3Kα IH % @ 1 uM [2]: 7.1%
- PI3Kβ IH % @ 1 uM [3]: 42.2%
- PI3Kγ IH % @ 1 uM [4]: >100%
- IC50 [4]: 0.039 µM

Structure (SMILES): CC(C)Cn1c([C@@H]2CCCN2c2ncnc3[nH]cc(C#N)c23)nn2ccc(Cl)c2c1=O [Compound 64]
- PI3Kδ IH % @ 1 uM [1]: 98.9%
- IC50 [1]: 0.003 µM
- PI3Kα IH % @ 1 uM [2]: 32.6%
- PI3Kβ IH % @ 1 uM [3]: 78.8%
- IC50 [3]: 0.251 µM
- PI3Kγ IH % @ 1 uM [4]: 89.9%
- IC50 [4]: 0.041 µM

Structure (SMILES): N#Cc1c[nH]c2ncnc(N3CCC[C@H]3c3nn4ccc(Cl)c4c(=O)n3Cc3ccccn3)c12 [Compound 65]
- PI3Kδ IH % @ 1 uM [1]: >100%
- IC50 [1]: 0.014 µM
- PI3Kα IH % @ 1 uM [2]: 52.6%
- PI3Kβ IH % @ 1 uM [3]: 50.6%
- PI3Kγ IH % @ 1 uM [4]: >100%
- IC50 [4]: 0.078 µM

Structure (SMILES): N#Cc1c[nH]c2ncnc(N3CCC[C@H]3c3nn4ccc(Cl)c4c(=O)n3Cc3cccnc3)c12 [Compound 66]
- PI3Kδ IH % @ 1 uM [1]: >100%
- IC50 [1]: 0.012 µM
- PI3Kα IH % @ 1 uM [2]: 75.6%
- PI3Kβ IH % @ 1 uM [3]: 63.6%
- PI3Kγ IH % @ 1 uM [4]: >100%
- IC50 [4]: 0.014 µM

Structure (SMILES): N#Cc1c(N)ncnc1N1CCC[C@H]1c1nn2ccc(Cl)c2c(=O)n1Cc1ccccn1 [Compound 69]
- PI3Kδ IH % @ 1 uM [1]: 99.9%
- IC50 [1]: 0.009 µM
- PI3Kα IH % @ 1 uM [2]: 13.0%
- PI3Kβ IH % @ 1 uM [3]: 57.8%
- PI3Kγ IH % @ 1 uM [4]: 68.8%

Structure (SMILES): N#Cc1c[nH]c2ncnc(N3C[C@H](O)C[C@H]3c3nn4ccc(Cl)c4c(=O)n3-c3ccccc3)c12 [Compound 70, 4-((2S,4R)-2-(5-chloro-4-oxo-3-phenyl-3,4-dihydropyrrolo[2,1-f][1,2,4]triazin-2-yl)-4-hydroxypyrrolidin-1-yl)-7H-pyrrolo[2,3-d]pyrimidine-5-carbonitrile]
- PI3Kδ IH % @ 1 uM [1]: 99.1%
- IC50 [1]: 0.003 µM
- PI3Kα IH % @ 1 uM [2]: 41.6%
- PI3Kβ IH % @ 1 uM [3]: 92.1%
- IC50 [3]: 0.22 µM
- PI3Kγ IH % @ 1 uM [4]: >100%
- IC50 [4]: 0.025 µM

Structure (SMILES): CC(=O)c1cnc(N)nc1N1CC[C@H]1c1nn2ccc(Cl)c2c(=O)n1-c1ccccc1 [Compound 299]
- PI3Kδ IH % @ 1 uM [1]: 99.4%
- IC50 [1]: 0.006 µM
- IC50 ([2]; read-out: PI3Kα IC50): 2.94 µM
- PI3Kβ IH % @ 1 uM [3]: 38.6%
- IC50 [3]: 0.644 µM
